Laboratory results taken from ChEMBL document CHEMBL5303573, “Mapping human microbiome drug metabolism by gut bacteria and their genes” (Nature, 2019).

Key:
[1] = The drug is tested on Bifidobacterium breve strain: DSM20213 for biotransformation. The drug concentrations were measured before and after a 12-h incubation by liquid-chromatography-coupled mass spectrometry (LC–MS); conditions: 2 µM
[2] = The drug is tested on Eggerthella lenta strain: ATCC25559 for biotransformation. The drug concentrations were measured before and after a 12-h incubation by liquid-chromatography-coupled mass spectrometry (LC–MS); conditions: 2 µM
[3] = The drug is tested on Alistipes indistinctus strain: DSM22520 for biotransformation. The drug concentrations were measured before and after a 12-h incubation by liquid-chromatography-coupled mass spectrometry (LC–MS); conditions: 2 µM
[4] = The drug is tested on Bacteroides cellulosilyticus strain: DSM14838 for biotransformation. The drug concentrations were measured before and after a 12-h incubation by liquid-chromatography-coupled mass spectrometry (LC–MS); conditions: 2 µM
[5] = The drug is tested on Bacteroides fragilis strain: HMW615 for biotransformation. The drug concentrations were measured before and after a 12-h incubation by liquid-chromatography-coupled mass spectrometry (LC–MS); conditions: 2 µM
[6] = The drug is tested on Bacteroides fragilis strain: ATCC43859 for biotransformation. The drug concentrations were measured before and after a 12-h incubation by liquid-chromatography-coupled mass spectrometry (LC–MS); conditions: 2 µM
[7] = The drug is tested on Bacteroides ovatus strain: ATCC8483 for biotransformation. The drug concentrations were measured before and after a 12-h incubation by liquid-chromatography-coupled mass spectrometry (LC–MS); conditions: 2 µM
[8] = The drug is tested on Bacteroides uniformis strain: ATCC8492 for biotransformation. The drug concentrations were measured before and after a 12-h incubation by liquid-chromatography-coupled mass spectrometry (LC–MS); conditions: 2 µM
[9] = The drug is tested on Bacteroides vulgatus strain: ATCC8482 for biotransformation. The drug concentrations were measured before and after a 12-h incubation by liquid-chromatography-coupled mass spectrometry (LC–MS); conditions: phocaeicola vulgatus, 2 µM
[10] = The drug is tested on Bacteroides xylanisolvens strain: DSM18836 for biotransformation. The drug concentrations were measured before and after a 12-h incubation by liquid-chromatography-coupled mass spectrometry (LC–MS); conditions: 2 µM
[11] = The drug is tested on Odoribacter splanchnicus strain: fecal isolate for biotransformation. The drug concentrations were measured before and after a 12-h incubation by liquid-chromatography-coupled mass spectrometry (LC–MS); conditions: 2 µM
[12] = The drug is tested on Parabacteroides merdae strain: ATCC43184 for biotransformation. The drug concentrations were measured before and after a 12-h incubation by liquid-chromatography-coupled mass spectrometry (LC–MS); conditions: 2 µM
[13] = The drug is tested on Clostridium sp. strain: fecal isolate for biotransformation. The drug concentrations were measured before and after a 12-h incubation by liquid-chromatography-coupled mass spectrometry (LC–MS); conditions: 2 µM
[14] = The drug is tested on Eubacterium rectale strain: ATCC33656 for biotransformation. The drug concentrations were measured before and after a 12-h incubation by liquid-chromatography-coupled mass spectrometry (LC–MS); conditions: agathobacter rectalis, 2 µM
[15] = The drug is tested on Edwardsiella tarda strain: ATCC23685 for biotransformation. The drug concentrations were measured before and after a 12-h incubation by liquid-chromatography-coupled mass spectrometry (LC–MS); conditions: 2 µM
[16] = bacteroides eggerthii, 12 h, 2 µM
Description: The drug is tested on Bacteroides eggerthii strain: DSM20697 for biotransformation. The drug concentrations were measured before and after a 12-h incubation by liquid-chromatography-coupled mass spectrometry (LC–MS)

[17] = bacteroides fragilis, 12 h, 2 µM
Description: The drug is tested on Bacteroides fragilis strain: NCTC 9343 for biotransformation. The drug concentrations were measured before and after a 12-h incubation by liquid-chromatography-coupled mass spectrometry (LC–MS)

[18] = bacteroides fragilis, 12 h, 2 µM; remark: listed apart in the source
Description: The drug is tested on Bacteroides fragilis strain: DS-208 for biotransformation. The drug concentrations were measured before and after a 12-h incubation by liquid-chromatography-coupled mass spectrometry (LC–MS)

[19] = anaerostipes sp., 12 h, 2 µM
Description: The drug is tested on Anaerostipes sp. strain: fecal isolate for biotransformation. The drug concentrations were measured before and after a 12-h incubation by liquid-chromatography-coupled mass spectrometry (LC–MS)

[20] = victivallis vadensis, 12 h, 2 µM
Description: The drug is tested on Victivallis vadensis strain: ATCC BAA-548 for biotransformation. The drug concentrations were measured before and after a 12-h incubation by liquid-chromatography-coupled mass spectrometry (LC–MS)

Structure (SMILES)	Bacterial Biotransformation [1]	Bacterial Biotransformation [2]	Bacterial Biotransformation [3]	Bacterial Biotransformation [4]	Bacterial Biotransformation [5]	Bacterial Biotransformation [6]	Bacterial Biotransformation [7]	Bacterial Biotransformation [8]	Bacterial Biotransformation [9]	Bacterial Biotransformation [10]	Bacterial Biotransformation [11]	Bacterial Biotransformation [12]	Bacterial Biotransformation [13]	Bacterial Biotransformation [14]	Bacterial Biotransformation [15]	Bacterial Biotransformation [16]	Bacterial Biotransformation [17]	Bacterial Biotransformation [18]	Bacterial Biotransformation [19]	Bacterial Biotransformation [20]
COc1ccc2[nH]c([S+]([O-])Cc3ncc(C)c(OC)c3C)nc2c1 (stereo not given) [OMEPRAZOLE]	Compound metabolized	Compound metabolized	Compound metabolized	Compound metabolized	Compound metabolized	Compound metabolized	Compound metabolized	Compound metabolized	Compound metabolized	Compound metabolized	Compound metabolized	Compound metabolized	Compound metabolized	Compound metabolized	Compound metabolized	Compound metabolized	Compound metabolized	Compound metabolized	Compound metabolized	Compound metabolized
COc1ccnc(C[S+]([O-])c2nc3ccc(OC(F)F)cc3[nH]2)c1OC (stereo not given) [PANTOPRAZOLE]	Compound metabolized	Compound metabolized	Compound metabolized	Compound metabolized	Compound metabolized	Compound metabolized	Compound metabolized	Compound metabolized	Compound metabolized	Compound metabolized	Compound metabolized	Compound metabolized	Compound metabolized	Compound metabolized	Compound metabolized	Compound metabolized	Compound metabolized	Compound metabolized	Compound metabolized	Compound metabolized
CN1CCN(CC/C=C2/c3ccccc3Sc3ccc(S(=O)(=O)N(C)C)cc32)CC1 [THIOTHIXENE]	Compound metabolized	Compound NOT metabolized	Compound NOT metabolized	Compound metabolized	Compound NOT metabolized	Compound NOT metabolized	Compound NOT metabolized	Compound metabolized	Compound metabolized	Compound metabolized	Compound metabolized	Compound NOT metabolized	Compound metabolized	Compound NOT metabolized	Compound metabolized	Compound metabolized	Compound metabolized	Compound NOT metabolized	Compound metabolized	Compound NOT metabolized
